In paper PMC5061366, “Metagenomic Analysis of the Sponge Discodermia Reveals the Production of the Cyanobacterial Natural Product Kasumigamide by ‘Entotheonella’” (PLoS ONE, 2016):

Assays:
Conditions in all cases: 1 mM substrate, 1 uM protein, 0.5 mM ATP, 10 mM MgCl2, 32 mM hydroxylamine, 1 mM DTT, pH 7.5, room temperature, 10 min
[1] = biological target: T1, MakasC-A2 (Microcystis aeruginosa, UniProt A0A1L7NR40); test: malachite green phosphate assay of adenylation (hydroxylamine, pyrophosphatase); type: biochemical
T1 construct: C-A2-PCP tridomain of MakasC (MakasC-CA2P); N-terminal His6 (pCold II), E. coli BLR(DE3)

[2] = biological target: MakasC-A1 (Microcystis aeruginosa, UniProt A0A1L7NR40)
[3] = biological target: T2, MakasB-A2 (Microcystis aeruginosa, UniProt A0A1L7NR43); test: malachite green phosphate assay of adenylation (hydroxylamine, pyrophosphatase); type: biochemical
T2 construct: single adenylation domain A2 of MakasB; N-terminal His6-MBP fusion (NhisMBP-pET28b(+)), E. coli BLR(DE3)

[4] = biological target: T3, MakasA-A1 (Microcystis aeruginosa, UniProt A0A1L7NR41); test: as above; type: biochemical
T3 construct: single adenylation domain A1 of MakasA; N-terminal His6 (pCold II), E. coli BLR(DE3)
T3 sequence (A0A1L7NR41 1-560 limits assumed): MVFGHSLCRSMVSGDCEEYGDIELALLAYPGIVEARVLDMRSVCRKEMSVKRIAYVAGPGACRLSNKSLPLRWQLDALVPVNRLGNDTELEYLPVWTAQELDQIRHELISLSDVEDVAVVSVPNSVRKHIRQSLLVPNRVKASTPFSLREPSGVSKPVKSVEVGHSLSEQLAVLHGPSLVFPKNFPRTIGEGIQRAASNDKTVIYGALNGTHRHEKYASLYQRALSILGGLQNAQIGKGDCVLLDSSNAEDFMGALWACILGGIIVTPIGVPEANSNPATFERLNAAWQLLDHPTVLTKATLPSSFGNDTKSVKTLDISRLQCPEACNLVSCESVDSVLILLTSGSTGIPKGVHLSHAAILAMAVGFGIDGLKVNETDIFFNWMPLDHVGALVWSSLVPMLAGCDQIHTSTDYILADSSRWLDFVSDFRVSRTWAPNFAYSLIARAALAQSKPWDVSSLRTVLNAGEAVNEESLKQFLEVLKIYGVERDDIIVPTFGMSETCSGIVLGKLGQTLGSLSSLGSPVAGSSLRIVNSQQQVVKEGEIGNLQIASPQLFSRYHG

[5] = biological target: T4, MakasB-A1 (Microcystis aeruginosa, UniProt A0A1L7NR43); test: as above; type: biochemical
T4 construct: C-A1-PCP tridomain of MakasB (MakasB-CA1P); N-terminal His6 (pCold II), E. coli BLR(DE3)

SMILES: NC(C(=O)O)C(O)c1ccccc1 (racemic) [DL-threo-3-phenylserine]
- relative adenylation activity [1]: MakasC-A2 showed higher selectivity to DL-threo-3-phenylserine (DL-threo-PS) than L-Phe

SMILES: N=C(N)NCCC[C@H](N)C(=O)O [L-Arg]
- relative adenylation activity [2]: exhibited catalytic activities selective for PP, β-Ala, L-Trp, and L-Arg, respectively

SMILES: N[C@@H](Cc1c[nH]c2ccccc12)C(=O)O [L-Trp]
- relative adenylation activity [3]: exhibited catalytic activities selective for PP, β-Ala, L-Trp, and L-Arg, respectively

SMILES: O=C(O)C(=O)Cc1ccccc1 [phenyl pyruvic acid]
- relative adenylation activity [4]: exhibited catalytic activities selective for PP, β-Ala, L-Trp, and L-Arg, respectively

SMILES: NCCC(=O)O [β-Ala]
- relative adenylation activity [5]: exhibited catalytic activities selective for PP, β-Ala, L-Trp, and L-Arg, respectively
